# Experimental data published in PubChem BioAssay (NCI).
#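 These data come from cells grown in 96-well plates and exposed to compound for 48 hours at five concentrations. The concentration for 50% growth inhibition is given as GI50. TGI marks complete inhibition of growth.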
# Columns and labels:
# Assay in all cases: inhibition of tumour cell growth, NCI panel, 48 h
# SF-295 CNS = tested on: SF-295 CNS
# SK-MEL-28 melanoma = tested on: SK-MEL-28 melanoma
# CCRF-CEM leukemia = tested on: CCRF-CEM leukemia
# DU-145 prostate = tested on: DU-145 prostate
# OVCAR-4 ovarian = tested on: OVCAR-4 ovarian
# OVCAR-3 ovarian = tested on: OVCAR-3 ovarian
# EKVX NSCLC = tested on: EKVX NSCLC
# M14 melanoma = tested on: M14 melanoma
# RPMI-8226 leukemia = tested on: RPMI-8226 leukemia
# HL-60(TB) leukemia = tested on: HL-60(TB) leukemia
Structure (SMILES),GI50 (SF-295 CNS) [µM],TGI (SF-295 CNS) [µM],GI50 (SK-MEL-28 melanoma) [µM],TGI (SK-MEL-28 melanoma) [µM],GI50 (CCRF-CEM leukemia) [µM],TGI (CCRF-CEM leukemia) [µM],GI50 (DU-145 prostate) [µM],TGI (DU-145 prostate) [µM],GI50 (OVCAR-4 ovarian) [µM],TGI (OVCAR-4 ovarian) [µM],GI50 (OVCAR-3 ovarian) [µM],TGI (OVCAR-3 ovarian) [µM],GI50 (EKVX NSCLC) [µM],TGI (EKVX NSCLC) [µM],GI50 (M14 melanoma) [µM],TGI (M14 melanoma) [µM],GI50 (RPMI-8226 leukemia) [µM],TGI (RPMI-8226 leukemia) [µM],TGI (HL-60(TB) leukemia) [µM],GI50 (HL-60(TB) leukemia) [µM]
COc1cc(OC)c(C(=O)/C=C/c2cccc(C#N)c2)c(OC)c1,1.31,5.51,1.58,6.24,1.03,> 50,1.47,6.37,2.03,10,1.75,6.74,1.37,5.32,0.978,4.68,0.981,4.31,–,–
CC1(C)CC2CC(CC(C)(C)C2=O)C1=O,–,> 100,–,> 100,–,> 100,–,–,–,> 100,–,> 100,–,> 100,–,> 100,–,> 100,> 100,–
NC(=O)NC12CC3CC(CC(F)(C3)C1)C2,–,–,–,> 100,–,> 100,–,–,–,–,–,> 100,–,> 100,–,> 100,–,> 100,> 100,–
CCOc1ccc(NC(=O)C(=O)C(C(=O)c2ccc3ccccc3c2)C2OC(=O)c3ccccc32)cc1 (centres undefined),–,–,–,37.5,–,57.7,–,–,–,44.5,–,86.8,–,> 100,–,42.2,–,38.4,–,–
COc1cc2c(cc1OC)[C@@H](Nc1ccc(F)cc1)C1COC(=O)[C@@H]1C2c1cc(OC)c(O)c(OC)c1 (some centres undefined),–,6.28,–,> 100,–,0.846,–,–,–,> 85.8,–,> 100,–,> 100,–,10.5,–,2.45,0.626,–
CNC(=O)OCc1c2ccncc2c(C)c2c1[nH]c1ccc(OC)cc12,–,> 100,–,2.04,–,1.29,–,–,–,1.13,–,> 100,–,> 100,–,1.81,–,0.668,0.623,–
Cc1cn2c(/C=C3/C(=O)Nc4ccc(O)cc43)c(C)nc2s1,1.73,8.08,8.44,> 100,1.25,–,6.43,> 100,> 51.4,> 100,0.486,> 22.6,12.9,> 100,2.29,> 39.1,1.93,> 20.6,–,–
COC(=O)c1cc2ccccc2c2c3c(ccc12)OCO3,99.8,548,71.3,328,–,–,109,> 1000,22.3,133,68.7,700,–,–,474,> 1000,430,> 1000,> 1000,–
O=S(=O)(/C=C/CS(=O)(=O)c1ccccc1)c1ccccc1,–,93.6,–,> 100,–,> 100,–,–,–,> 100,–,84.7,–,> 100,–,67.3,–,95.7,37.9,–
CC(C)CCNCC(O)Cn1c2ccccc2c2ccccc21 (centres undefined),19.4,39.4,4.42,16.1,12.8,31.7,14.6,27.9,12.9,27.2,13.4,26.8,–,–,2.73,7.5,3.1,11.2,31.6,14.3
CCCN(CCC)C(=O)C(=O)c1c(N)[nH]n(-c2ccccc2)c1=O,–,> 100,–,–,–,> 100,–,–,–,> 100,–,> 100,–,> 100,–,> 100,–,> 100,> 100,–
COc1cccc(NC(=O)CC(=O)N2N=C(N3c4ccccc4Sc4ccccc43)CC2c2ccccc2)c1 (centres undefined),–,> 100,–,> 100,–,–,–,–,–,> 100,–,> 100,–,> 100,–,> 100,–,> 100,–,–
COC1=C(C)C(=O)c2c(cc3c(c2O)C(C)(CCC=C(C)C)C(C)O3)C1=O (centres undefined),–,52.7,–,> 100,–,> 100,–,–,–,> 100,–,> 100,–,> 100,–,55.7,–,> 100,> 100,–
O=C(O)c1nc(-c2ccc(Cl)c(Cl)c2)nc2ccc(Cl)cc12,–,> 100,–,> 100,–,> 10,–,–,–,–,–,> 100,–,> 100,–,–,–,> 100,54.2,–
COc1ccc2nc3cc(Cl)ccc3c(SCC(=O)Nc3ccccc3-c3ccccc3NC(=O)CSc3c4ccc(Cl)cc4nc4ccc(OC)cc34)c2c1,–,> 100,–,> 100,–,> 100,–,–,–,> 100,–,> 100,–,> 100,–,> 100,–,> 100,–,–
COc1ccc(CC2(Cc3ccc(OC)cc3)CCOC2=O)cc1,–,> 100,–,> 100,–,> 100,–,–,–,> 100,–,> 100,–,> 100,–,> 100,–,> 100,> 100,–
Cn1cc(-c2csc(-c3cn(CCCN4CCCCC4)c4ccccc34)n2)c2cccnc21,1.71,3.18,1.7,3.19,–,–,1.75,3.17,2.02,4.07,1.7,3.14,16.3,34.5,1.82,3.38,–,–,–,–
C[CH2][Sn]([CH2]C)([O]C(=O)c1ccccc1F)[O][Sn]([CH2]C)([CH2]C)[O]C(=O)c1ccccc1F,42.1,> 57.8,18.7,33.4,4.67,21.6,–,–,> 51.7,> 82.8,> 42,> 56.3,33.9,> 100,26.5,> 57.2,20.9,> 100,> 75.7,43.3
C[C@]12CCC(=O)CC1CCCC2=O (some centres undefined),–,> 100,–,> 100,–,> 100,–,–,–,> 100,–,> 100,–,> 100,–,> 100,–,> 100,> 100,–
CCOC(=O)/C(O)=C(/C(=O)OC)c1ccc(Cl)cc1,–,> 100,–,> 100,–,> 100,–,–,–,> 100,–,> 100,–,> 100,–,> 100,–,> 100,–,–

Structure (SMILES),GI50 (SF-295 CNS) [µM],TGI (SF-295 CNS) [µM],GI50 (SK-MEL-28 melanoma) [µM],TGI (SK-MEL-28 melanoma) [µM],GI50 (CCRF-CEM leukemia) [µM],TGI (CCRF-CEM leukemia) [µM],GI50 (DU-145 prostate) [µM],TGI (DU-145 prostate) [µM],GI50 (OVCAR-4 ovarian) [µM],TGI (OVCAR-4 ovarian) [µM],GI50 (OVCAR-3 ovarian) [µM],TGI (OVCAR-3 ovarian) [µM],GI50 (EKVX NSCLC) [µM],TGI (EKVX NSCLC) [µM],GI50 (M14 melanoma) [µM],TGI (M14 melanoma) [µM],GI50 (RPMI-8226 leukemia) [µM],TGI (RPMI-8226 leukemia) [µM],TGI (HL-60(TB) leukemia) [µM],GI50 (HL-60(TB) leukemia) [µM]
CCC[CH2][Sn]1([CH2]CCC)[O]C2C(CO)OC(n3ccc(N)nc3=O)C2[O]1 (centres undefined),1.93,3.72,1.29,2.66,–,–,1.34,2.61,1.33,2.68,1.58,2.94,–,–,1.55,3.09,0.29,2.02,–,–
COc1ccc(C2=CC(c3ccc(OC)cc3Br)N3C=CSC3=N2)cc1 (centres undefined),11.5,38.7,8.83,22.3,2.69,> 100,11.9,33.1,5.04,27.3,4.11,14.8,–,–,5.21,20.8,1.86,7.29,19.3,3.2
COC(=O)C(CC1=C(O)Nc2ccccc2N1)/C(=N/NC(N)=O)C(=O)Nc1ccccc1C (centres undefined),–,> 100,–,> 100,–,48.8,–,–,–,> 100,–,> 100,–,> 100,–,> 100,–,48.4,> 100,–
CCN(CC)c1oc(N(CC)CC)c(C(=O)Nc2ccccn2)c(=O)c1C(C)=O,–,–,–,> 100,–,> 100,–,–,–,–,–,> 100,–,> 100,–,> 100,–,> 100,–,–
CCOC(=O)c1cc2c(n1Cc1cc(OC)c(OC)c(OC)c1)-c1oncc1CCC2,–,–,0.255,> 54.5,0.318,5.38,0.302,6.87,1.36,> 67.4,0.0901,0.399,–,–,–,–,0.42,21.9,0.765,0.221
CN(C)C(=O)c1ccc([N+](=O)[O-])cc1,–,> 100,–,> 100,–,> 100,–,–,–,> 100,–,> 100,–,> 100,–,> 100,–,–,> 100,–
Oc1c(Cl)c(Cl)c(O)c2c1CCCC2,–,37.6,–,27.7,–,5.05,–,–,–,–,–,–,–,21.4,–,32.5,–,6.91,–,–
O=C(O)C(CS)NCc1c2ccccc2nc2ccccc12 (centres undefined),–,> 100,–,> 100,–,74.6,–,–,–,37.6,–,> 100,–,> 100,–,–,–,70.3,62,–
CC(=O)O[C@H]1CCC2[C@@H]3CCC4c5nonc5CC[C@]4(C)C3CC[C@@]21C (some centres undefined),–,> 10,–,> 10,> 100,> 100,–,–,–,> 10,–,–,> 100,> 100,–,> 10,–,–,> 100,> 100
O=C(N/C(=C\c1ccc(/C=C(\NC(=O)c2ccccc2)c2nc3ccccc3[nH]2)cc1)c1nc2ccccc2[nH]1)c1ccccc1,–,> 100,–,> 100,–,> 100,–,–,–,> 100,–,> 100,–,> 100,–,> 100,–,> 100,–,–
[O-]c1ccccc1/C=N/C(/N=C/c1ccccc1[O-])c1ccccc1O.[O-]c1ccccc1/C=N/C(/N=C/c1ccccc1[O-])c1ccccc1O.[Zr+4],31.8,> 100,17.1,78.2,–,–,–,–,26.1,> 100,–,–,46.1,> 100,46.6,> 100,24.5,> 100,> 100,30.6
Cn1cccc1-c1cc(-c2ccc(Br)cc2)[nH]c(=O)c1C#N,> 100,> 100,> 100,> 100,> 100,> 100,> 100,> 100,> 100,> 100,85.8,> 100,34.5,> 100,–,–,> 100,> 100,–,–
CC(=O)[CH-]C(=O)c1ccccc1.CC(=O)[CH-]C(=O)c1ccccc1.CC(=O)[CH-]C(=O)c1ccccc1.[In+3],24.2,93.5,34.2,> 100,11.6,49.4,–,–,78.8,> 100,78,> 100,–,–,26.8,> 100,19.2,64.4,41.2,14.5
O=C1/C(=N\O)S(=O)(=O)c2ccccc21,–,> 100,–,–,–,> 100,–,–,–,> 100,–,–,–,–,–,> 100,–,> 100,> 100,–
CCc1cccc(C)c1NC(=O)C1=C(C)NC(C)=C(C(=O)Nc2c(C)cccc2CC)C1c1ccc2c(c1)OCO2,–,43.7,–,32.7,–,51.2,–,–,–,66.1,–,39.8,–,58.6,–,33.8,–,47.2,57.1,–
CCc1ccccc1NC(=O)/C(N=O)=C(/C)O,–,> 100,–,> 100,–,> 100,–,–,–,> 100,–,> 100,–,> 100,–,> 100,–,> 100,> 100,–
COc1cc([N+](=O)[O-])c(OC)cc1-c1nc2sccn2c1/C=N/N=C(N)N,19.5,> 100,27.9,63.4,–,–,30.4,> 100,52.2,> 100,14.6,66.5,25.9,73.6,40.8,> 100,> 100,> 100,–,–
O=C(NC(=Nc1ccccc1)SCCSC(=Nc1ccccc1)NC(=O)c1cccs1)c1cccs1,–,> 100,–,> 100,–,> 100,–,–,–,> 100,–,> 100,–,> 100,–,> 100,–,> 100,–,–
CN1CCc2[nH]nc(-c3n[nH]c4c3CN(C)CC4)c2C1,–,> 100,–,> 100,–,> 100,–,> 100,–,> 100,–,> 100,–,> 100,–,> 100,–,> 100,–,–
